“Also recorded” adds a separate entry of the source.
What was measured:
em promoter = em promoter driven GUS expression in bombarded barley aleurone layers; type: cell-based; settings: in the presence of the added substance
Source text: The studies examined the effector and reporter constructs, at a 1:1 ratio, introduced to barley aleurone layers by gold particle bombardment. The bombardment consisted of two trials: the first trial was a bombardment of em promoter only; the second trial was a bombardment of em promoters treated with ABAP1.

α-amylase activity = α-amylase activity in bombarded barley aleurones; type: cell-based; settings: em and ABAP1 bombarded aleurones
Experimental: A similar experiment was conducted with α-amylase activity to confirm if ABAP1 is involved in another signal transduction pathway. α-amylase activity was measured after ABA, PBI51 and GA were added to the em and ADAPT bombarded barley aleurones.

ABAP1 = ABAP1 (Hordeum vulgare, UniProt Q9LLX3); assay: ABA binding assay with purified recombinant ABAP1; set-up: species or system barley; settings: analogs/precursors added at the same time as 3H+-ABA at different concentrations (20-5000)
Experimental: Other additions or changes to the incubation system are discussed in the figure legends. All binding assays were carried out at a final volume of 150 μL at 4° C. for 1 hour. The mixture was then rapidly filtered through a nitrocellulose membrane, washed with 5 mL, of cold 0.5× binding buffer by rapid filtration, dried in air and counted in a scintillation counter (Wallac 1414 WinSpectral v1.40). […] The DCC binding mixture was maintained for 15 minutes on ice before centrifugation to precipitate DCC. The resulted supernatant was then counted in a scintillation counter to determine the binding activity. […] Heat denatured ABAP1 protein was used to determine the protein nature of the ABAP1 and BSA was used as a control. All binding studies were carried out using three different protein purifications with triplicate assays for each purification. […] Binding was represented as the number of moles of ^3H^+-ABA per mole of ABAP1 protein.

FCA/FY interaction = assay: GST pull-down of FCA/FY interaction in the presence of ABA; type: binding, Arabidopsis; settings: FCA pre-bound with ABA for 30 min
Experimental: All in vitro translation and GST pull-down assays were carried out as described by supplier's protocols (Promega, Madison, Wis.) with modifications^S and as follows. For GST in vitro pull-down assays, 15 μL GST affinity resin was incubated with 250 μL FCA clear lysate, pelleted and the complex blocked and washed with IP buffer as described^S. For the determination of the amount of FCA bound to GST resin, the pellet was resuspended with 200 μL of 15 mM GSH to elute FCA and the supernatant was recovered by centrifugation. FY protein to be tested for interaction with the GST-FCA fusion protein was synthesized from a plasmid template and labeled with [^35S]-methionine using the T7 TNT coupled Transcription/Translation System (Promega). Twenty μL of FY labeled protein and 180 μL of interaction buffer (12.5 mM Tris-HCl, pH 7.3 containing 5 mM KCl, 1 mM MgCl2, and 100 mM NaCl) were used to resuspend the GST:FCA after the final wash. The protein binding/interaction reaction was carried out for 90 minutes at 4° C. with continuous gentle mixing. The newly formed complex was then washed three times with 500 μL of IP wash buffer. After the final wash, the complex was resuspended, first with 10 μL of 1 5 mM GSH to facilitate the dissociation of interacted proteins from GST resin and then 10 μL of 2×SDS-PAGE sample buffer was added to the mixture and boiled for 5 minutes for complete elution of the proteins from the agarose beads. The beads were pelleted by centrifugation and supernatant was loaded on a 12% SDS-PAGE gel. The gel was dried and exposed to Kodak X-ray film for 18 hours at −70° C. and film was developed for the detection of labelled proteins.
FCA was bound with […] for 30 minutes at which time the FCA/FY translated product was added to the incubation mixture. The interaction between FCA/FY was carried out in the presence of either (−)- or (+)-ABA in binding buffer as described above. Released proteins were separated on SDS-PAGE and labelled proteins were detected as described above. FCA-WW-FY was used as a control.

FCA protein = target: T1, FCA protein (Arabidopsis thaliana, UniProt O04425); assay: ABA binding assay with purified recombinant FCA; set-up: Kd; other: analog added in higher concentrations than 3H+-ABA (20-5000 nM); other: Scatchard analysis, r^2=0.88; other: in presence of 5 μM unlabelled (+)-ABA; pH range of maximum; fused on or other part: GST fused on for purification; settings: analog added in higher concentrations than 3H+-ABA (20-5000 nM)
T1 sequence (O04425 1-747 isoform O04425-1): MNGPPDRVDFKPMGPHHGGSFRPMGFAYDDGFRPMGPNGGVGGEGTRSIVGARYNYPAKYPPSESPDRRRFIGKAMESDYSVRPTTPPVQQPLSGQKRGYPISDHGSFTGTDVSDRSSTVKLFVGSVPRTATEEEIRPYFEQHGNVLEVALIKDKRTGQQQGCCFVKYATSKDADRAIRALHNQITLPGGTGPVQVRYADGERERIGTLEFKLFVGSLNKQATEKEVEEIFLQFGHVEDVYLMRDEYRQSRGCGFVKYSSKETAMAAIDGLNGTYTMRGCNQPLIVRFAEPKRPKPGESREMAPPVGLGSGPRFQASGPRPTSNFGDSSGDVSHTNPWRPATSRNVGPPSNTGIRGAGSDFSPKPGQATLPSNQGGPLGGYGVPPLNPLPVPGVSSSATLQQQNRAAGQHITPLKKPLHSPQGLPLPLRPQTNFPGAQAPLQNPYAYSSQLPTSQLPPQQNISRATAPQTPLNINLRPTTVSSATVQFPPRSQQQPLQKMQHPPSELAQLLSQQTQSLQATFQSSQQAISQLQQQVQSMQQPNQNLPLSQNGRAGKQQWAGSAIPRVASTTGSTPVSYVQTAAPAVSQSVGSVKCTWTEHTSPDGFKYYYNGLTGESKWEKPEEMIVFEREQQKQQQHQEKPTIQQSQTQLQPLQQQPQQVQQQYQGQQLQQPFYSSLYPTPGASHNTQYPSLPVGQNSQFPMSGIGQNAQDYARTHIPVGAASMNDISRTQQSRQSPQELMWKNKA
Experimental: […] The mixture was then rapidly filtered through a nitrocellulose membrane, washed with 0.5× binding buffer, air dried and counted in a scintillation counter (Wallac 1414 WinSpectral v1.40). Heat denatured FCA protein was used to used determine the protein nature of the FCA and BSA was used as a control. All binding studies were carried out using three different GST affinity chromatography protein purifications with triplicate assays for each purification. […] Specific binding was calculated by taking the difference for assays with only ^3H^+-ABA (total binding) and assays that also contained 5 μM (±)-ABA added at the same time as ^3H^+-ABA (non-specific binding). Binding was represented as the number of moles of ^3H^+-ABA per mole of FCA protein.

[1] = ABA binding of ABAP1 trypsin fragments; set-up: species or system barley; settings: for ABA binding molar ratio / affinity: trypsin fragments compared with full-length ABAP1
Source text: It is to be noted that the nucleotide fragment sequence SEQ ID NO: 12 corresponds to nucleotides 350 through 951 of the nucleotide sequence listing set forth in SEQ ID NO: 9, and that the amino acid sequence SEQ ID NO: 11 encoded by the nucleotide fragment sequence SEQ ID NO: 12 corresponds to amino acids 112 though 309 of the ABAP1 protein (SEQ. ID NO: 10). Mutation analysis can be used to determine the specific residues involved in […] binding. Those skilled in these arts will understand that the ABA-binding capacity within a recipient plant tissue or seed can be modulated by constructing a nucleotide molecule by first fusing the T-20 coding sequence (SEQ ID NO: 12) with a suitable regulatory nucleotide sequence selected for over-expression or for under-expression of the T-20 coding sequence, then stably introducing the T-20 nucleotide molecule into the genome of a recipient cell from a seed-producing plant, culturing the recipient cell into a functional whole plant and then further propagating the plant to produce mature recipient seeds. A suitable forward […] for the T-20 coding sequence is set forth in the sequence listing identified as SEQ ID NO: 15. A suitable reverse primer for the T-20 coding sequence is set forth in the sequence listing identified as SEQ ID NO: 16.

ABAP1, sequence (Q9LLX3 entry or part of it): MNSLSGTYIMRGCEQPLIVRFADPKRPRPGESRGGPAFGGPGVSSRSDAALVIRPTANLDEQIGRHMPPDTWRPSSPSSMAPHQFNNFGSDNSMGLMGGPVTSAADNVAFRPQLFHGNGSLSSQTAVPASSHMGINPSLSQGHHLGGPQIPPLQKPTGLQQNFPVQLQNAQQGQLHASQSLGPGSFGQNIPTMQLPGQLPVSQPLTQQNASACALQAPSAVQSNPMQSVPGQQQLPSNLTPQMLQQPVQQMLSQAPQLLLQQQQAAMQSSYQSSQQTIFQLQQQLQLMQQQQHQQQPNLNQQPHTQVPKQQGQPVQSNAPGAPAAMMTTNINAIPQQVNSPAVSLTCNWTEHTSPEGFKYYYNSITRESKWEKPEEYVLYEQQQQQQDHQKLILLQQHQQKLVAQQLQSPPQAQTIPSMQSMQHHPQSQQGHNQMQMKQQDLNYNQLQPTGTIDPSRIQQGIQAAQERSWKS

Molecule: C/C(C#C[C@]1(O)[C@H](C)CC(=O)CC1(C)C)=C/CO [PBI51]
- activation of the em promoter by ABAP1 (em promoter): reduced
- α-amylase activity (α-amylase activity): decreased

Molecule: CC1=CC(=O)CC(C)(C)[C@@]1(O)/C=C/C(C)=C\C(=O)O[C@@H]1O[C@H](CO)[C@@H](O)[C@H](O)[C@H]1O [ABA-GE, (+) abscisic acid-glucose ester]
- displacement of 3H+-ABA bound to ABAP1 (competition) (ABAP1): incapability

Molecule: C=C1C[C@]23C[C@@]1(O)CC[C@H]2[C@@]12C=C[C@H](O)[C@@](C)(C(=O)O1)[C@H]2[C@@H]3C(=O)O [GA, gibberellic acid]
- activation of the em promoter by ABAP1 (em promoter): reduced
- α-amylase activity (α-amylase activity): did not affect any reduction

Molecule: CC1=CC(=O)CC(C)(C)[C@@]1(O)/C=C/C(C)=C\CO [(+) ABA-alcohol]
- displacement of 3H+-ABA bound to ABAP1 (competition) (ABAP1): able to displace
- displacement of 3H+-ABA bound to ABAP1 (competition) (ABAP1; listed as ABA alcohol): did competitively inhibit binding of ABA to ABAP1 to some extent

Molecule: CC(=C/C(=O)O)/C=C/[C@]1(O)[C@@]2(C)CO[C@]1(C)CC(=O)C2 [PA, phaseic acid]
- displacement of 3H+-ABA bound to ABAP1 (competition) (ABAP1): incapability

Molecule: CC1=CC(=O)CC(C)(C)[C@@]1(O)/C=C/C(C)=C\C=O [(+) ABA-aldehyde]
- displacement of 3H+-ABA bound to ABAP1 (competition) (ABAP1): able to displace
- displacement of 3H+-ABA bound to ABAP1 (competition) (ABAP1; listed as ABA aldehyde): did competitively inhibit binding of ABA to ABAP1 to some extent

Molecule: (−)-ABA
- inhibition of FCA/FY interaction (FCA/FY interaction): did not significantly inhibit
- displacement of 3H+-ABA binding to FCA (FCA protein): Virtually no or very little displacement
- displacement of 3H+-ABA bound to ABAP1 (competition) (ABAP1): neither (−)-ABA nor trans-ABA compete
- displacement of 3H+-ABA bound to ABAP1 (competition) (ABAP1; listed as (−) ABA): incapability

Molecule: CC(=C/C(=O)O)/C=C/[C@]1(O)[C@@]2(C)CO[C@]1(C)C[C@@H](O)C2 [DPA, dihydrophaseic acid]
- displacement of 3H+-ABA bound to ABAP1 (competition) (ABAP1): incapability

Molecule: CC(C=CC1(O)C(C)=CC(=O)CC1(C)C)=CC(=O)O (stereo not drawn) [trans-ABA]
- displacement of 3H+-ABA binding to FCA (FCA protein): Virtually no or very little displacement
- displacement of 3H+-ABA bound to ABAP1 (competition) (ABAP1): incapability; also recorded: neither (−)-ABA nor trans-ABA compete

B1: 10 kDa fragment: trypsin fragment of ABAP1 containing HR2 only, SEQ ID NO: 13 (protein)
chain: SAVQSNPMQSVPGQQQLPSNLTPQMLQQPVQQMLSQAPQLLLQQQQAAMQSSYQSSQQTIFQLQQQLQLMQQQQHQQQPNLNQQPHTQVPK
modifications: Hordeum, vulgare subsp. vulgare
- ABA-binding affinity relative to 20 kDa fragment and full-length protein [1]: less than 50%
- ABA binding molar ratio / affinity [1]: slight binding affinity

B2: 20 kDa fragment: trypsin fragment of ABAP1 with HR1 and HR2 regions, SEQ ID NO: 11 (protein)
chain: PQLFHGNGSLSSQTAVPASSHMGINPSLSQGHHLGGPQIPPLQKPTGLQQNFPVQLQNAQQGQLHASQSLGPGSFGQNIPTMQLPGQLPVSQPLTQQNASACALQAPSAVQSNPMQSVPGQQQLPSNLTPQMLQQPVQQMLSQAPQLLLQQQQAAMQSSYQSSQQTIFQLQQQLQLMQQQQHQQQPNLNQQPHTQVPK
modifications: Hordeum, vulgare subsp. vulgare
- ABA binding molar ratio / affinity [1]: about the same molar ratio
